In PubChem BioAssay (NCI):
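Step 1: Grow cells in 96-well plates. Step 2: Expose to compound for 48 hours at 5 concentrations. Step 3: Interpolate endpoints linearly; if unreached, use highest concentration. Abbreviation: GI50, concentration required for 50% inhibition of growth. The concentration for full growth arrest is given as TGI.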

Key:
Experiment in all cases: DTP human tumour cell line panel, 48 h
HL-60(TB) leukemia = tested on: HL-60(TB) leukemia
A498 renal = tested on: A498 renal
COLO 205 colon = tested on: COLO 205 colon
IGROV1 ovarian = tested on: IGROV1 ovarian
SNB-19 CNS = tested on: SNB-19 CNS
TK-10 renal = tested on: TK-10 renal
A549 NSCLC = tested on: A549 NSCLC
LOX IMVI melanoma = tested on: LOX IMVI melanoma

| Compound | TGI (HL-60(TB) leukemia) [µM] | TGI (A498 renal) [µM] | TGI (COLO 205 colon) [µM] | TGI (IGROV1 ovarian) [µM] | TGI (SNB-19 CNS) [µM] | TGI (TK-10 renal) [µM] | TGI (A549 NSCLC) [µM] | TGI (LOX IMVI melanoma) [µM] | GI50 (HL-60(TB) leukemia) [µM] | GI50 (A498 renal) [µM] | GI50 (IGROV1 ovarian) [µM] | GI50 (SNB-19 CNS) [µM] | GI50 (TK-10 renal) [µM] | GI50 (A549 NSCLC) [µM] | GI50 (LOX IMVI melanoma) [µM] | GI50 (COLO 205 colon) [µM] |
| --- | --- | --- | --- | --- | --- | --- | --- | --- | --- | --- | --- | --- | --- | --- | --- | --- |
| NC(=S)N/N=C(/CC(=O)c1ccccc1)C(=O)Nc1ccc(Cl)c(Cl)c1 | > 100 | > 100 | > 100 | > 100 | > 100 | > 100 | > 100 | > 100 |  |  |  |  |  |  |  |  |
| COc1nc(NC2OCC(OC(C)=O)C(OC(C)=O)C2OC(C)=O)c(N=CC=Nc2c(NC3OCC(OC(C)=O)C(OC(C)=O)C3OC(C)=O)nc(OC)n(C)c2=O)c(=O)n1C (stereo not drawn) | > 100 | > 100 | > 100 | > 100 | > 100 | > 100 | > 100 | > 100 |  |  |  |  |  |  |  |  |
| CC1=NOC(=O)/C1=C/c1ccccc1O | > 100 |  | > 100 | > 100 | > 100 | > 100 | > 100 | > 100 |  |  |  |  |  |  |  |  |
| C=CCC1([C@H](C)[C@@H](OC(C)=O)c2cc(OC)c(OC)c(OC)c2)C[C@@H](OC)CCC1=O (stereo partly drawn) | 45 |  | 42.2 | 33.5 |  | > 100 | 77.5 |  |  |  |  |  |  |  |  |  |
| CC1CCCCc2nc3c(c(=O)n21)CCCC3 (stereo not drawn) |  |  | > 100 | > 100 | > 100 | > 100 | > 100 | > 100 |  |  |  |  |  |  |  |  |
| CC1=NCCc2c1[nH]c1cc(O)ccc21 | > 100 | > 100 | > 100 | > 100 | > 100 | > 100 | > 100 | > 100 |  |  |  |  |  |  |  |  |
| Cc1ccc(-c2c(N)[n+]([O-])c3ccccc3[n+]2[O-])cc1 | > 100 |  | 34.7 | 29.8 | 25.4 | 33 | 62.3 | 25.4 |  |  |  |  |  |  |  |  |
| COc1ccccc1NC(=O)CC(=O)N1N=C(C)C(N=Nc2ccc(S(N)(=O)=O)cc2)C1=O (stereo not drawn) |  | > 100 | > 100 | > 100 | > 100 | > 100 | > 100 | > 100 |  |  |  |  |  |  |  |  |
| N#C/C(=C1\OC(=O)C(c2ccc(Br)cc2)=C1O)c1ccc(Br)cc1 | 44.6 | 28.9 | 34.5 | 34.4 | 27.5 | 36.7 | 44.2 | 30.7 |  |  |  |  |  |  |  |  |
| COC(=O)CCC(NC(=S)N/N=C(\C)c1nccs1)C(=O)OC (stereo not drawn) | 47.5 | > 100 | 34.1 | > 100 | > 100 | > 100 | > 100 | > 100 |  |  |  |  |  |  |  |  |
| CC(=O)NC(CCCNCc1ccccc1)C(=O)NCc1ccccc1 (stereo not drawn) |  | > 100 | > 100 | > 100 | > 100 | > 100 | > 100 | > 100 |  |  |  |  |  |  |  |  |
| CNC(=O)OCc1nc(SC2CCCCO2)n(C)c1COC(=O)NC (stereo not drawn) | > 100 | > 100 | > 100 | > 100 | > 100 |  | > 100 | > 100 |  |  |  |  |  |  |  |  |
| COC(=O)c1csnn1 | > 100 |  | > 100 | > 100 | > 100 | > 100 | > 100 | > 100 |  |  |  |  |  |  |  |  |
| C[N+](C)(C)CC(=O)N/N=C(/Cc1nc2c3c(ccc2[nH]c1=O)C(=O)c1ccccc1C3=O)C(=O)Nc1ccc(Cl)c(Cl)c1 | > 100 | > 100 | > 100 | > 100 |  | > 100 | > 100 |  |  |  |  |  |  |  |  |  |
| COc1cc(/C=C2\C(=O)N(C(=O)Cc3ccccc3)N=C2C)ccc1O | > 100 |  | > 100 |  | > 100 | > 100 | > 100 | > 100 |  |  |  |  |  |  |  |  |
| Cc1ccc(C(=O)O/N=C2/CCC/C2=C\c2ccccc2)cc1 | > 100 | > 100 | > 100 | > 100 |  | > 100 | > 100 | > 100 |  |  |  |  |  |  |  |  |
| N#CC(C(=O)/C(=N/NC(=O)c1ccccc1O)C(C#N)c1ccc(Cl)cc1)c1ccc(Cl)cc1 (stereo not drawn) | 53.1 | 25.5 | 86.5 |  | 30.2 | 31.3 | 72.8 | 27.3 |  |  |  |  |  |  |  |  |
| Cc1ccncc1.[O]=[Ge].[O]=[Ge].[O]=[Ge].[O]=[Ge].[O]=[Ge].[O]=[Ge][OH].[O]=[Ge][OH] | > 100 | > 100 |  | > 100 | > 100 | > 100 | > 100 | > 100 | > 100 | > 100 | > 100 | > 100 | > 100 | > 100 | > 100 |  |
| CCCCCCCCCCCCOC(=S)NCCCC | 43.1 | 43.1 |  | 81.1 | > 100 | > 100 |  | 32 |  |  |  |  |  |  |  |  |
| O=C([O-])c1ccccc1Nc1ccccn1.O=C([O-])c1ccccc1Nc1ccccn1.[Ni+2] |  | > 100 | > 100 | > 100 | > 100 |  | > 100 | > 100 |  | > 100 | > 100 | > 100 |  | > 100 | > 100 | > 100 |
| CCCc1[nH]nc(CCC(=O)N(Cc2ccccc2)Cc2ccccc2)c1CC |  | > 100 | > 100 | > 100 | > 100 | > 100 | > 100 | > 100 |  |  |  |  |  |  |  |  |
